Blank lines part the entries; values can stand above or below the compound they belong to. The source made the active and inactive calls.
Experiments:
Melanocortin receptor 4 = Melanocortin receptor 4 (Homo sapiens, UniProt P32245); assay: inhibitors of MC4R cAMP signaling – cell-based, TR-FRET, biased antagonists, dose response (AID 602298); assay type: functional;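 further: antagonist potency against agonist-stimulated cAMP production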
[1] = cAMP pathway inhibition in counterscreen cell line – TR-FRET cAMP detection, counter-screen for MC4R biased antagonist project, dose response (AID 602305); assay type: functional, cell-based;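 further: U2OS cells stimulated with forskolin near its EC80 as the cAMP inducer; potency is for inhibition of forskolin-stimulated cAMP signaling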
[2] = molecular target: Melanin-concentrating hormone receptor 1 (Homo sapiens, UniProt Q99705); assay: Late-stage fluorescence-based counterscreen for antagonists of the G-protein coupled receptor 7 (GPR7): cell-based dose response assay to identify antagonists of the melanin-concentrating hormone receptor 1 (MCHR1) Set 5.; assay type: functional
[3] = molecular target: Cyclin-dependent kinase 19 (Homo sapiens, UniProt Q9BWU1); assay: Navigating the Kinome. Panel member name: CDC2L6; assay type: functional
[4] = molecular target: ALK tyrosine kinase receptor (Homo sapiens, UniProt Q9UM73); assay type: functional;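 further: ALK tested as one member of a kinase panel screen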
[5] = molecular target: Protein disulfide-isomerase (Homo sapiens, UniProt P07237); assay: inhibition of PDI-driven insulin aggregation – biochemical, turbidity, absorbance, cherry-picked samples, dose response (AID 602350); assay type: functional
INS1 = assay: INS-1E survival protection against cytokine death – cell-based, luminescence, retest, dose response (AID 449756); assay type: functional; details: Rattus norvegicus;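 further: cell death triggered by IL-1 beta plus TNF-alpha plus IFN-gamma mixture; protective hits raise ATP signal compared with cytokine alone wells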
[6] = HEK-293T viability loss after treatment – luminescence, T-cell screen hits, cytotoxicity control for TCR NF-kB inhibitor project, dose response (AID 489026); assay type: functional, cell-based;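 further: cells exposed to compound about 14 hours before the viability readout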
[7] = fluconazole-exposed Candida albicans growth modulators – fluorescence, retest, confirmation (AID 2467); assay type: functional, cell-based
cells [8] = assay type: functional, cell-based
BJ = assay: growth inhibition of engineered Ras-driven BJ cells – cell-based, alamar blue fluorescence, cherrypicked samples, dose response (AID 2631); assay type: functional; details: Homo sapiens;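 further: confirmatory dose-response assay in RAS-dependent BJ fibroblasts engineered with TERT, LT and ST, with cytotoxicity read by fluorescence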
[9] = NIH-3T3 fibroblast cytotoxicity, dose response, cytotoxicity control, cell-based, fluorescence, Alamar Blue, secondary assay (AID 2327); assay type: functional;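 further: NIH-3T3 mouse fibroblasts cultured with fluconazole at 8 µg/mL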
cells [10] = assay type: functional, cell-based; remark: listed apart in the source
[11] = molecular target: T1, Mannose-6-phosphate isomerase (Homo sapiens, UniProt P34949); assay: MPI enzyme activity inhibition – biochemical, fluorescence intensity, coupled assay, primary screen (AID 1209)
T1 sequence (P34949 whole entry): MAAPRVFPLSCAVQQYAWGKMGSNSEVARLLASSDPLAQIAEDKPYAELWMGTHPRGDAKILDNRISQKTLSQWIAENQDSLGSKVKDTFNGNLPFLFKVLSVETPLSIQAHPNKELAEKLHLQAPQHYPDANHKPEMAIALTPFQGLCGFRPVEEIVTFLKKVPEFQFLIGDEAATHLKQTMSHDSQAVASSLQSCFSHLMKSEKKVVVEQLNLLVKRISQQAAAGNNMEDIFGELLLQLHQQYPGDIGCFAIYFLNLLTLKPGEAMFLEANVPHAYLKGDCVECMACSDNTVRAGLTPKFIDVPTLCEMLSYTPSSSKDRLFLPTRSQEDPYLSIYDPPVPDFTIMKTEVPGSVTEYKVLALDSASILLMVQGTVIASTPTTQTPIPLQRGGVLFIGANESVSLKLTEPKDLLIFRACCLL

[12] = molecular target: Dual specificity tyrosine-phosphorylation-regulated kinase 1A (Rattus norvegicus, UniProt Q63470); assay type: biochemical, Homo sapiens
Large T antigen = Large T antigen (Simian virus 40, UniProt P03070); assay type: functional, Betapolyomavirus macacae;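 further: Confirmatory-stage PubChem screen for compounds that inhibit SV40 T antigen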
Sequence of Large T antigen (P03070 whole entry): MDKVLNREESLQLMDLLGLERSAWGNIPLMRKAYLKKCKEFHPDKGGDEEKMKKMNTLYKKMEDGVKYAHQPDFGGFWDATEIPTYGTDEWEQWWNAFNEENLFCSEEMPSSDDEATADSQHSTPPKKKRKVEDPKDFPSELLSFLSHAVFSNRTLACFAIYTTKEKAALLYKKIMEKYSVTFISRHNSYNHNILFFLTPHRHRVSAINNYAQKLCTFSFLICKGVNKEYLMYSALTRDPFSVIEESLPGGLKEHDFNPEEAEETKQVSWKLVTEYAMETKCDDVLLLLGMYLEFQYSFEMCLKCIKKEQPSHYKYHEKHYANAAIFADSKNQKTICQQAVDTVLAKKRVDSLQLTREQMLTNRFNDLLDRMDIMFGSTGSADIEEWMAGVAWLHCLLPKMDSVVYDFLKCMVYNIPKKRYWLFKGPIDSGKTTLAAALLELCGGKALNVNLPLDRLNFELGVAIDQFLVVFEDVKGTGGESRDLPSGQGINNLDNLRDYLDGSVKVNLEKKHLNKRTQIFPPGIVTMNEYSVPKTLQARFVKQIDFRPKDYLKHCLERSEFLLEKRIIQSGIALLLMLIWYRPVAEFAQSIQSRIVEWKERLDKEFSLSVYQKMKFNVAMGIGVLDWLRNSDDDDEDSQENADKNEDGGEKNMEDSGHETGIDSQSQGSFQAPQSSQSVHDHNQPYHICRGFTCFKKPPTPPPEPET

Sequence of Protein disulfide-isomerase (P07237 whole entry): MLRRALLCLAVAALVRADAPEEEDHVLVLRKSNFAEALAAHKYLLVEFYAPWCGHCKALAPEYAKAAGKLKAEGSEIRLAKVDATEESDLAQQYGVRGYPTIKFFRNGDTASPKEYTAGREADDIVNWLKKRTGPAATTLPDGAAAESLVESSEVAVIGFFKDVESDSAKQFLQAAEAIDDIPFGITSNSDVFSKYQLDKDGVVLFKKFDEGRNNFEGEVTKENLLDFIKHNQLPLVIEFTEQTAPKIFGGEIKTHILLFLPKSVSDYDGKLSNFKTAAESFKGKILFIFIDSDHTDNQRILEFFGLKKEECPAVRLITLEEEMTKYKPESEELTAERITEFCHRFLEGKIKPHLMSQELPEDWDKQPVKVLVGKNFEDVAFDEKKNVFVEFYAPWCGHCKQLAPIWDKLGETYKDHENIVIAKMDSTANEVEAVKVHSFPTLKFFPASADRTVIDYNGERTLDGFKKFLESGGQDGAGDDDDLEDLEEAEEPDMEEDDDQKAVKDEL
Sequence of Cyclin-dependent kinase 19 (Q9BWU1 whole entry): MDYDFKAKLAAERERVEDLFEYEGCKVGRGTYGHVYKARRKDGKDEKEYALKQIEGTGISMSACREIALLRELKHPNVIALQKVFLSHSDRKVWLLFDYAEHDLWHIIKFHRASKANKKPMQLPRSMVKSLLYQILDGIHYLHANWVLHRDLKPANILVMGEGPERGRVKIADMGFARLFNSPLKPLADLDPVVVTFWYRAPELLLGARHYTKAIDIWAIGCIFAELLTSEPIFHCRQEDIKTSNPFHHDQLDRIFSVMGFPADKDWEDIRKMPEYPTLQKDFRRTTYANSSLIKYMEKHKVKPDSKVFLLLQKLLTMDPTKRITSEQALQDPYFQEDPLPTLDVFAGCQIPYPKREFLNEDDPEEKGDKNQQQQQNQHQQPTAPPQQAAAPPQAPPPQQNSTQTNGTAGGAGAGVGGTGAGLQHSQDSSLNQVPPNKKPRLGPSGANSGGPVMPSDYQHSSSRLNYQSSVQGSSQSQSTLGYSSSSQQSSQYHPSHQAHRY
Sequence of Melanin-concentrating hormone receptor 1 (Q99705 whole entry): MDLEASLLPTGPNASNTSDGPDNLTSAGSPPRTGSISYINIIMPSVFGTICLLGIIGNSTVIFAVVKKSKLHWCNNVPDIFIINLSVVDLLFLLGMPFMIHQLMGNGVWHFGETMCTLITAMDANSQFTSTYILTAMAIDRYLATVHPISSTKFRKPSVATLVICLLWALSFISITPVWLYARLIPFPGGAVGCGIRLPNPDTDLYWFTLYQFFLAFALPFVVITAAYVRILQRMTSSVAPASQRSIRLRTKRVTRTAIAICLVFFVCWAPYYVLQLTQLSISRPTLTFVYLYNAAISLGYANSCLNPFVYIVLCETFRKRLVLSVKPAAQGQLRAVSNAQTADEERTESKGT
Sequence of ALK tyrosine kinase receptor (Q9UM73 whole entry): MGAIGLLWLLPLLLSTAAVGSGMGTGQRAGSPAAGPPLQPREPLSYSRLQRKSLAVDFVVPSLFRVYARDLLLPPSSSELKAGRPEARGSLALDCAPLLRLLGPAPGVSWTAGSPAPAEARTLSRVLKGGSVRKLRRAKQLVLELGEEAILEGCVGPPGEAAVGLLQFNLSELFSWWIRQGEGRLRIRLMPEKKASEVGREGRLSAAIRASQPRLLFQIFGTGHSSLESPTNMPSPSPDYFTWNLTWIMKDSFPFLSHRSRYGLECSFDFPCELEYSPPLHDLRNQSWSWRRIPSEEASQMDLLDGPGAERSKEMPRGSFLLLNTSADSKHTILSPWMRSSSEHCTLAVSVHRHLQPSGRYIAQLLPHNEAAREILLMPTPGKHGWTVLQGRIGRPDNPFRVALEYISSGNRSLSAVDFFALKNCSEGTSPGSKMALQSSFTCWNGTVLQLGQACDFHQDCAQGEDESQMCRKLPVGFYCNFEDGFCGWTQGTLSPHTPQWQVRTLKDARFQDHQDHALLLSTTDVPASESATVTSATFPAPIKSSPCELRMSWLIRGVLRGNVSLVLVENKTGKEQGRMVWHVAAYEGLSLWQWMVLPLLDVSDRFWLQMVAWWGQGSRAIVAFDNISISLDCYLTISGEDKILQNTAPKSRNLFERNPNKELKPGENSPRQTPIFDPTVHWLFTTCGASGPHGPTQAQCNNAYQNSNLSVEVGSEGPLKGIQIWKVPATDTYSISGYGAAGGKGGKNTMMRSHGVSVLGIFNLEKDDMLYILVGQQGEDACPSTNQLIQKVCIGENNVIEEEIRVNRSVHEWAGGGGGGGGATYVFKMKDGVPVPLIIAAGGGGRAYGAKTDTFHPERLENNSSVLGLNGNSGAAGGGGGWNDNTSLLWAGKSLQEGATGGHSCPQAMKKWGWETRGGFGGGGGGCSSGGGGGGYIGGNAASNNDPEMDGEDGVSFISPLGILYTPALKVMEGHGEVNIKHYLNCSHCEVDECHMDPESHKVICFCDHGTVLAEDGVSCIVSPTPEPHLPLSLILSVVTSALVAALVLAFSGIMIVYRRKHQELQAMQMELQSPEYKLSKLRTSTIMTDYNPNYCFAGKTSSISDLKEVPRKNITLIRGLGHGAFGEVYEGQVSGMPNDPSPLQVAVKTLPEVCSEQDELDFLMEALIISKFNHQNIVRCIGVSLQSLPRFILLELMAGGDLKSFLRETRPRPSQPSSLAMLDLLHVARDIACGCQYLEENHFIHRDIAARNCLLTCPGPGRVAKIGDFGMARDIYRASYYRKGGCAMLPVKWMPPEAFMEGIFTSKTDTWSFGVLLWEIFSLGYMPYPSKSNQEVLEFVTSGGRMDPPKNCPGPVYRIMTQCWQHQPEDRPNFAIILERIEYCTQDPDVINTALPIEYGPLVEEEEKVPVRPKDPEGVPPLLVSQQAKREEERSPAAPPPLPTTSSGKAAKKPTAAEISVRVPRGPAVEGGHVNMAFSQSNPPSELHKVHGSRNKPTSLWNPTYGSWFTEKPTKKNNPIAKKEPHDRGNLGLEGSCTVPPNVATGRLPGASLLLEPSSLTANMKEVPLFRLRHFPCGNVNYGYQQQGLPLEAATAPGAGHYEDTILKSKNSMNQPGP
Sequence of Melanocortin receptor 4 (P32245 whole entry): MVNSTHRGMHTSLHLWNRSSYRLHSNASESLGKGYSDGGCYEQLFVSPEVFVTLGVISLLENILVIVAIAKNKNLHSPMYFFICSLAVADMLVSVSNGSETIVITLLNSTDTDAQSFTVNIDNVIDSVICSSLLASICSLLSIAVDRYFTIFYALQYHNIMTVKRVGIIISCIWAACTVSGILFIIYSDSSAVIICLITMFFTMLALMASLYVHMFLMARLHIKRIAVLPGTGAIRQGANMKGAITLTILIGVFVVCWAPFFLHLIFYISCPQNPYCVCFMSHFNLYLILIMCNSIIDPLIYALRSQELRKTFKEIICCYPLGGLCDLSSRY

SMILES: COc1cc(OC)cc(Oc2ccc(S(=O)(=O)N3CCCCC3)cc2[N+](=O)[O-])c1
- IC50 (Melanocortin receptor 4): > 64.6 µM (inactive)
- IC50 [1]: > 64.6 µM (inactive)

- IC50 [2]: > 20 µM (inactive)
SMILES: COc1ccc(Oc2c(Cl)cnn(C3c4ccccc4Oc4ccccc43)c2=O)cc1

- Ki [3]: 2 µM (active)
- Ki [4]: 1.26 µM (active)
SMILES: Cn1cc(Nc2ncc(Br)c(Nc3ccccc3)n2)cn1

- AC50 [5]: 19.5 µM (active)
SMILES: C[C@H]1CN([C@@H](C)CO)C(=O)c2cccc(NS(C)(=O)=O)c2O[C@@H]1CN(C)Cc1ccc(Oc2ccccc2)cc1

SMILES: O=C(N/N=C\c1c(O)ccc2ccccc12)c1ccc(S(=O)(=O)N2CCCCC2)cc1
- AC50 (INS1): < 0.195 µM (active)
- IC50 [6]: > 80 µM (inactive)
- EC50 [7]: 0.178 µM (active)
- EC50 (cells [8]): 5.71 µM (active)
- EC50 (BJ): 0.558 µM (inconclusive)
- EC50 [9]: 3.29 µM (active)
- EC50 (cells [10]): > 350 µM (not active)

SMILES: O=c1c(OC2OC(CO)C(O)C(O)C2O)c(-c2ccc(O)c(O)c2)oc2cc(O)cc(O)c12 (configuration not stated)
- IC50 [11]: 21.3 µM (active)
- AC50 [12]: 7.72 µM (active)
- AC50 [5]: 8.92 µM (active)
- IC50 (Large T antigen): 2.06 µM (active)

— ChEMBL document CHEMBL1201862, “PubChem BioAssay data set” (2004)
